Assay results from ChEMBL document CHEMBL5724914, “Linking interpersonal differences in gut microbiota composition and drug biotransformation activity” (2024).

Legend:
[1] = human gut metagenome, 24 h, 2 µM
[2] = human gut metagenome, 24 h, 2 µM; remark: listed apart in the source
[3] = (§1) The drug is tested on Z-008 corresponding to metagenome with ENA study accession number: PRJEB37062 and ENA sample accession number: ERS12561808 for biotransformation under anaerobic condition. The drug concentrations were measured over 9 timepoints collected between 0 and 24 hours of incubation by liquid-chromatography-coupled mass spectrometry (LC–MS); conditions: 2 µM
[4] = human gut metagenome, 24 h, 2 µM; remark: listed apart in the source
[5] = (§2) The drug is tested on WLS-170 corresponding to human gut metagenome with ENA study accession number: PRJEB37062 and ENA sample accession number: ERS12561762 for biotransformation under anaerobic condition. The drug concentrations were measured over 9 timepoints collected between 0 and 24 hours of incubation by liquid-chromatography-coupled mass spectrometry (LC–MS); conditions: 2 µM
[6] = as §2, with “Z-006” for “WLS-170”, “mouse” for “human”, “ERS12561806” for “ERS12561762”; conditions: 2 µM
[7] = human gut metagenome, 24 h, 2 µM; remark: listed apart in the source
[8] = as §2, with “WLS-073” for “WLS-170”, “ERS12561749” for “ERS12561762”; conditions: 2 µM
[9] = as §2, with “Z-022” for “WLS-170”, “mouse” for “human”, “ERS12561821” for “ERS12561762”; conditions: 2 µM
[10] = human gut metagenome, 24 h, 2 µM; remark: listed apart in the source
[11] = human gut metagenome, 24 h, 2 µM; remark: listed apart in the source
[12] = human gut metagenome, 24 h, 2 µM; remark: listed apart in the source
[13] = as §2, with “WLS-006” for “WLS-170”, “ERS12561741” for “ERS12561762”; conditions: 2 µM
[14] = as §2, with “Z-024” for “WLS-170”, “pig” for “human”, “ERS12561823” for “ERS12561762”; conditions: 2 µM
[15] = human gut metagenome, 24 h, 2 µM; remark: listed apart in the source
[16] = as §1, with “Z-027” for “Z-008”, “ERS12561826” for “ERS12561808”; conditions: 2 µM
[17] = as §2, with “Z-018” for “WLS-170”, “pig” for “human”, “ERS12561817” for “ERS12561762”; conditions: 2 µM
[18] = human gut metagenome, 24 h, 2 µM; remark: listed apart in the source
[19] = as §2, with “Z-009” for “WLS-170”, “pig” for “human”, “ERS12561809” for “ERS12561762”; conditions: 2 µM
[20] = as §2, with “WLS-007” for “WLS-170”, “ERS12561742” for “ERS12561762”; conditions: 2 µM
Further: call rule not given here.

| Bacterial Biotransformation [1] | Bacterial Biotransformation [2] | Bacterial Biotransformation [3] | Bacterial Biotransformation [4] | Bacterial Biotransformation [5] | Bacterial Biotransformation [6] | Bacterial Biotransformation [7] | Bacterial Biotransformation [8] | Bacterial Biotransformation [9] | Bacterial Biotransformation [10] | Bacterial Biotransformation [11] | Bacterial Biotransformation [12] | Bacterial Biotransformation [13] | Bacterial Biotransformation [14] | Bacterial Biotransformation [15] | Bacterial Biotransformation [16] | Bacterial Biotransformation [17] | Bacterial Biotransformation [18] | Bacterial Biotransformation [19] | Bacterial Biotransformation [20] | SMILES |
| --- | --- | --- | --- | --- | --- | --- | --- | --- | --- | --- | --- | --- | --- | --- | --- | --- | --- | --- | --- | --- |
| Compound NOT metabolized | Compound metabolized | Compound NOT metabolized | Compound metabolized | Compound metabolized | Compound NOT metabolized | Compound NOT metabolized | Compound NOT metabolized | Compound metabolized | Compound metabolized | Compound NOT metabolized | Compound NOT metabolized | Compound metabolized | Compound NOT metabolized | Compound metabolized | Compound NOT metabolized | Compound metabolized | Compound metabolized | Compound NOT metabolized | Compound NOT metabolized | CC[C@H](C)C(=O)O[C@H]1CCC=C2C=C[C@H](C)[C@H](CC[C@@H]3C[C@@H](O)CC(=O)O3)[C@H]21 [MEVASTATIN] |
| Compound NOT metabolized | Compound metabolized | Compound NOT metabolized | Compound metabolized | Compound metabolized | Compound NOT metabolized | Compound NOT metabolized | Compound NOT metabolized | Compound NOT metabolized | Compound metabolized | Compound metabolized | Compound metabolized | Compound metabolized | Compound NOT metabolized | Compound metabolized | Compound NOT metabolized | Compound NOT metabolized | Compound NOT metabolized | Compound NOT metabolized | Compound NOT metabolized | COc1ccc2cc([C@H](C)C(=O)O)ccc2c1 [NAPROXEN] |
| Compound NOT metabolized | Compound metabolized | Compound NOT metabolized | Compound metabolized | Compound metabolized | Compound NOT metabolized | Compound metabolized | Compound metabolized | Compound NOT metabolized | Compound metabolized | Compound metabolized | Compound metabolized | Compound metabolized | Compound NOT metabolized | Compound metabolized | Compound NOT metabolized | Compound NOT metabolized | Compound NOT metabolized | Compound NOT metabolized | Compound metabolized | C#C[C@]1(OC(C)=O)CC[C@H]2[C@@H]3CCC4=C/C(=N/O)CC[C@@H]4[C@H]3CC[C@@]21CC [NORGESTIMATE] |
| Compound metabolized | Compound metabolized | Compound metabolized | Compound metabolized | Compound metabolized | Compound metabolized | Compound metabolized | Compound metabolized | Compound metabolized | Compound metabolized | Compound metabolized | Compound metabolized | Compound metabolized | Compound metabolized | Compound metabolized | Compound metabolized | Compound metabolized | Compound metabolized | Compound NOT metabolized | Compound metabolized | COc1ccnc(C[S+]([O-])c2nc3ccc(OC(F)F)cc3[nH]2)c1OC (stereo not given) [PANTOPRAZOLE] |
| Compound NOT metabolized | Compound metabolized | Compound NOT metabolized | Compound metabolized | Compound metabolized | Compound NOT metabolized | Compound NOT metabolized | Compound NOT metabolized | Compound NOT metabolized | Compound metabolized | Compound metabolized | Compound metabolized | Compound metabolized | Compound NOT metabolized | Compound NOT metabolized | Compound NOT metabolized | Compound NOT metabolized | Compound NOT metabolized | Compound NOT metabolized | Compound metabolized | CN(CCOc1ccc(CC2SC(=O)NC2=O)cc1)c1ccccn1.O=C(O)/C=C\C(=O)O (stereo not given) [ROSIGLITAZONE MALEATE] |
| Compound metabolized | Compound NOT metabolized | Compound NOT metabolized | Compound metabolized | Compound metabolized | Compound NOT metabolized | Compound NOT metabolized | Compound NOT metabolized | Compound NOT metabolized | Compound metabolized | Compound metabolized | Compound metabolized | Compound metabolized | Compound NOT metabolized | Compound metabolized | Compound NOT metabolized | Compound NOT metabolized | Compound NOT metabolized | Compound NOT metabolized | Compound metabolized | CC(C)c1nc(N(C)S(C)(=O)=O)nc(-c2ccc(F)cc2)c1/C=C/[C@@H](O)C[C@@H](O)CC(=O)[O-].CC(C)c1nc(N(C)S(C)(=O)=O)nc(-c2ccc(F)cc2)c1/C=C/[C@@H](O)C[C@@H](O)CC(=O)[O-].[Ca+2] [ROSUVASTATIN CALCIUM] |
| Compound metabolized | Compound metabolized | Compound metabolized | Compound metabolized | Compound metabolized | Compound metabolized | Compound metabolized | Compound metabolized | Compound metabolized | Compound metabolized | Compound metabolized | Compound metabolized | Compound metabolized | Compound metabolized | Compound metabolized | Compound NOT metabolized | Compound metabolized | Compound metabolized | Compound metabolized | Compound metabolized | O=C(O)c1cc(/N=N/c2ccc(S(=O)(=O)Nc3ccccn3)cc2)ccc1O [SULFASALAZINE] |
| Compound NOT metabolized | Compound metabolized | Compound NOT metabolized | Compound metabolized | Compound metabolized | Compound NOT metabolized | Compound NOT metabolized | Compound metabolized | Compound NOT metabolized | Compound metabolized | Compound NOT metabolized | Compound NOT metabolized | Compound metabolized | Compound NOT metabolized | Compound metabolized | Compound NOT metabolized | Compound NOT metabolized | Compound metabolized | Compound NOT metabolized | Compound NOT metabolized | C=CC[C@@H]1/C=C(\C)C[C@H](C)C[C@H](OC)[C@H]2O[C@@](O)(C(=O)C(=O)N3CCCC[C@H]3C(=O)O[C@H](/C(C)=C/[C@@H]3CC[C@@H](O)[C@H](OC)C3)[C@H](C)[C@@H](O)CC1=O)[C@H](C)C[C@@H]2OC.O [TACROLIMUS] |
